Results from article PMC9395488, “First-in-human study of IM156, a novel potent biguanide oxidative phosphorylation (OXPHOS) inhibitor, in patients with advanced solid tumors” (Investigational New Drugs, 2022).

Test system: patients with advanced solid tumors
Test: First-in-human phase 1 dose-escalation study: safety, DLTs, adverse events
Type: in vivo
From the text: This multicenter first-in-human dose-escalation phase 1 study (clinicaltrials.gov identifier: NCT03272256) was designed to determine the MTD or RP2D and to evaluate the safety and tolerability of IM156. Secondary endpoints included PK characteristics, efficacy assessment (objective response rate [ORR], disease control rate [DCR], duration of response [DoR] and progression-free survival [PFS]). Furthermore, exploratory objectives included identification and profiling of IM156 metabolites, evaluations of exploratory PD markers of IM156, and evaluations of any potential relationship between putative biomarkers and safety/efficacy parameters of IM156. The study was conducted in accordance with Good Clinical Practice, the International Council for Harmonisation, and guidelines governing clinical study conduct and the ethical principles originating from the Declaration of Helsinki. The study was approved by each Institutional Review Board and patients provided written informed consent. Patients were enrolled at three sites in South Korea.
The initial dose and schedule of IM156 was chosen based on animal toxicology studies. […] IM156 was administered in the fasted state, with no food for at least 2 h before and 1 h after dosing.
Three DLT-evaluable patients were enrolled at each dose level. If there were no DLTs or other prohibitive adverse events (AEs), the Safety Committee was allowed to recommend escalation to the next highest dose level. If 1 DLT occurred in the first 3 DLT-evaluable patients, enrollment in that cohort was expanded to an additional 3 DLT-evaluable patients; if ≥ 2 DLTs were reported in a cohort, that dose was considered above the MTD.
Safety was assessed through vital signs, weight, laboratory assessments, physical examinations, electrocardiogram, and reporting of AEs as graded by the National Cancer Institute’s Common Terminology Criteria for Adverse Events v4.03 (NCI-CTCAE).
DLTs were defined as the following AEs if they were attributed as related to IM156: asymptomatic grade 4 neutropenia lasting for ≥ 5 days; febrile neutropenia, regardless of grade; grade 4 thrombocytopenia or grade 3 thrombocytopenia with bleeding; any grade ≥ 3 non-hematologic AE (except grade 3 hypertension and grade 3 nausea, vomiting or diarrhea for which proper measures for prevention and treatment were not implemented, and alopecia); blood lactate levels > 5 mmol; grade ≥ 2 AE prohibiting dosing of IM156 for ≥ 21 continuous days except for alterations in serum calcium or phosphorus levels. The safety analysis includes all patients who received at least one dose of study drug.
The safety population was defined as all patients who received at least one dose of IM156. The PK population was not defined in the protocol but included all patients with sufficient PK data to perform adequate PK modeling. The efficacy population included all patients who underwent at least one tumor imaging assessment while receiving IM156. Safety was assessed using descriptive statistics (e.g., DLTs, AEs, laboratory tests, physical examination, 12-lead ECG). The incidence and number of events were reported for the DLTs observed in Cycle 1 per dose group. […] Adverse events and TRAEs were standardized with the System Organ Class and the Preferred Term using the Medical Dictionary for Regulatory Activities v23.0. In addition, TEAEs, serious adverse events (SAEs), TEAE severity, and TEAEs leading to withdrawal were presented by dose group. Efficacy data were to be presented by Waterfall and Swim Lane plots. Time to event endpoints (e.g., DoR, PFS) were determined using Kaplan–Meier estimations with the median value for each endpoint summarized.

NC(=Nc1ccc(OC(F)(F)F)cc1)N=C(N)N1CCCC1 [IM156]
TEAE Purpura grade 2 (DL7 1200 mg orally daily (n=4)): 0 | TEAE Purpura grade 3 (DL7 1200 mg orally daily (n=4)): 0 | TEAE Purpura grade 4 (DL7 1200 mg orally daily (n=4)): 0 | TEAE Urinary retention grade 1 (DL7 1200 mg orally daily (n=4)): 0 | TEAE Urinary retention grade 2 (DL7 1200 mg orally daily (n=4)): 0 | TEAE Urinary retention grade 3 (DL7 1200 mg orally daily (n=4)): 0 | TEAE Urinary retention grade 4 (DL7 1200 mg orally daily (n=4)): 0 | TEAE Urinary tract disorder grade 1 (DL7 1200 mg orally daily (n=4)): 0 | TEAE Urinary tract disorder grade 2 (DL7 1200 mg orally daily (n=4)): 1 | TEAE Urinary tract disorder grade 3 (DL7 1200 mg orally daily (n=4)): 0 | TEAE Urinary tract disorder grade 4 (DL7 1200 mg orally daily (n=4)): 0 | TEAE Adrenal insufficiency grade 1 (Total): 0 | TEAE Adrenal insufficiency grade 2 (Total): 1 | TEAE Adrenal insufficiency grade 3 (Total): 0 | TEAE Adrenal insufficiency grade 4 (Total): 0 | TEAE Anaemia grade 1 (Total): 0 | TEAE Anaemia grade 2 (Total): 3 | TEAE Anaemia grade 3 (Total): 2 | TEAE Anaemia grade 4 (Total): 0 | TEAE Appendicitis perforated grade 1 (Total): 0 | TEAE Appendicitis perforated grade 2 (Total): 0 | TEAE Appendicitis perforated grade 3 (Total): 1 | TEAE Appendicitis perforated grade 4 (Total): 0 | TEAE Back pain grade 1 (Total): 0 | TEAE Back pain grade 2 (Total): 2 | TEAE Back pain grade 3 (Total): 0 | TEAE Back pain grade 4 (Total): 0 | TEAE Cystitis grade 1 (Total): 0 | TEAE Cystitis grade 2 (Total): 1 | TEAE Cystitis grade 3 (Total): 0 | TEAE Cystitis grade 4 (Total): 0 | TEAE Dry skin grade 1 (Total): 0 | TEAE Dry skin grade 2 (Total): 1 | TEAE Dry skin grade 3 (Total): 0 | TEAE Dry skin grade 4 (Total): 0 | TEAE Flank pain grade 1 (Total): 0 | TEAE Flank pain grade 2 (Total): 1 | TEAE Flank pain grade 3 (Total): 0 | TEAE Flank pain grade 4 (Total): 0 | TEAE Hypertension grade 1 (Total): 0 | TEAE Hypertension grade 2 (Total): 1 | TEAE Hypertension grade 3 (Total): 0 | TEAE Hypertension grade 4 (Total): 0 | TEAE Hypotension grade 1 (Total): 0 | TEAE Hypotension grade 2 (Total): 1 | TEAE Hypotension grade 3 (Total): 0 | TEAE Hypotension grade 4 (Total): 0 | TEAE Insomnia grade 1 (Total): 2 | TEAE Insomnia grade 2 (Total): 1 | TEAE Insomnia grade 3 (Total): 0 | TEAE Insomnia grade 4 (Total): 0 | TEAE Pain in extremity grade 1 (Total): 1 | TEAE Pain in extremity grade 2 (Total): 1 | TEAE Pain in extremity grade 3 (Total): 0 | TEAE Pain in extremity grade 4 (Total): 0 | TEAE Pruritus grade 1 (Total): 1 | TEAE Pruritus grade 2 (Total): 0 | TEAE Pruritus grade 3 (Total): 0 | TEAE Pruritus grade 4 (Total): 0 | TEAE Psychiatric disorders grade 1 (Total): 2 | TEAE Psychiatric disorders grade 2 (Total): 1 | TEAE Psychiatric disorders grade 3 (Total): 0 | TEAE Psychiatric disorders grade 4 (Total): 0 | TEAE Purpura grade 1 (Total): 1 | TEAE Purpura grade 2 (Total): 0 | TEAE Purpura grade 3 (Total): 0 | TEAE Purpura grade 4 (Total): 0 | TEAE Urinary retention grade 1 (Total): 0 | TEAE Urinary retention grade 2 (Total): 1 | TEAE Urinary retention grade 3 (Total): 0 | TEAE Urinary retention grade 4 (Total): 0 | TEAE Urinary tract disorder grade 1 (Total): 0 | TEAE Urinary tract disorder grade 2 (Total): 1 | TEAE Urinary tract disorder grade 3 (Total): 0 | TEAE Urinary tract disorder grade 4 (Total): 0 | TRAE Abdominal Pain, > G3 (patients) (Total, N = 22): 0 | TRAE Abdominal Pain, All grades (patients) (Total, N = 22): 2 | TRAE Blood Lactic Acid increased, > G3 (patients) (Total, N = 22): 0 | TRAE Blood Lactic Acid increased, All grades (patients) (Total, N = 22): 2 | TRAE Constipation, > G3 (patients) (Total, N = 22): 0 | TRAE Constipation, All grades (patients) (Total, N = 22): 2 | TRAE Decreased appetite, > G3 (patients) (Total, N = 22): 0 | TRAE Diarrhoea, > G3 (patients) (Total, N = 22): 0 | TRAE Diarrhoea, All grades (patients) (Total, N = 22): 10 | TRAE Fatigue, > G3 (patients) (Total, N = 22): 0 | TRAE Fatigue, All grades (patients) (Total, N = 22): 4 | TRAE Insomnia, > G3 (patients) (Total, N = 22): 0 | TRAE Insomnia, All grades (patients) (Total, N = 22): 2 | TRAE Nausea, > G3 (patients) (Total, N = 22): 3 | TRAE Nausea, All grades (patients) (Total, N = 22): 15 | TRAE Vomiting, > G3 (patients) (Total, N = 22): 0 | TRAE Vomiting, All grades (patients) (Total, N = 22): 9 | TEAE Abdominal discomfort, grade 1 (Total, all dose levels): 1 | TEAE Abdominal distension, grade 2 (Total, all dose levels): 1 | TEAE Abdominal pain upper, grade 2 (Total, all dose levels): 1 | TEAE Abdominal pain, grade 1 (Total, all dose levels): 2 | TEAE Abdominal pain, grade 2 (Total, all dose levels): 3 | TEAE Abdominal pain, grade 3 (Total, all dose levels): 1 | TEAE Akathisia, grade 2 (Total, all dose levels): 1 | TEAE Alanine aminotransferase increased, grade 1 (Total, all dose levels): 3 | TEAE Alanine aminotransferase increased, grade 3 (Total, all dose levels): 1 | TEAE Ascites, grade 1 (Total, all dose levels): 1 | TEAE Aspartate aminotransferase increased, grade 1 (Total, all dose levels): 2 | TEAE Aspartate aminotransferase increased, grade 2 (Total, all dose levels): 1 | TEAE Aspartate aminotransferase increased, grade 3 (Total, all dose levels): 1 | TEAE Asthenia, grade 1 (Total, all dose levels): 3 | TEAE Blood alkaline phosphatase increased, grade 2 (Total, all dose levels): 1 | TEAE Blood alkaline phosphatase increased, grade 3 (Total, all dose levels): 1 | TEAE Blood creatinine increased, grade 1 (Total, all dose levels): 3 | TEAE Blood lactic acid increased, grade 1 (Total, all dose levels): 2 | TEAE Chest pain, grade 1 (Total, all dose levels): 1 | TEAE Constipation, grade 1 (Total, all dose levels): 5 | TEAE Constipation, grade 2 (Total, all dose levels): 1 | TEAE Cough, grade 1 (Total, all dose levels): 3 | TEAE Decreased appetite, grade 1 (Total, all dose levels): 3 | TEAE Decreased appetite, grade 2 (Total, all dose levels): 1 | TEAE Diarrhoea, grade 1 (Total, all dose levels): 9
